We go through 19 compounds from patent US8962639B2, “Potassium channel modulators” (AbbVie Inc., priority 2009, dated 2015).

This assay concerns the target T1, human KCNQ2 and KCNQ3 (Homo sapiens, UniProt O43525+O43526).
T1 construct: expressed in transfected cells; host or cells: HEK293
Briefly: KCNQ 2/3 channel activation, thallium flux FLIPR assay (BTC-AM dye) in HEK293 cells. The class given is cell-based. The conditions noted are these: for Emax: HEK293, maximum response relative to response of retigabine at 10 μM set at 100%, read-out: Max response; for pEC50: HEK293 cells stably expressing human KCNQ2 and KCNQ3, compound incubated 4 minutes, Tl+ flux fluorescence. The method, then: The following example describes the assay that can be used to identify compounds that activate KCNQ 2/3 channels.
HEK293 cells stably expressing human KCNQ2 and KCNQ3 were seeded in 96-well, black-walled, clear-bottomed, poly-D-lysine coated plates (BD Biosciences, Bedford, Mass.) at a density of 1×10^5 cells per well 24 hours before the assay. On the assay day, BTC-AM dye (Invitrogen, Carlsbad, Calif.) was loaded into the cells by replacing the cell culture medium with 100 μL/well of 4 μM dye in DPBS. Dye loading was allowed to proceed for 2 hours at room temperature and then cells were washed twice in 100 μL/well of assay buffer (in mM: 10 HEPES pH 7.3, 5 glucose, 140 Na-gluconate, 2.5 K-gluconate, 3.6 Ca-gluconate, 2 MgSO4, 0.1 Ouabain) to remove unloaded dye. Cells were incubated in 50 μL of assay buffer before loading onto a FLIPR system (Molecular Devices, Sunnyvale, Calif.). Various concentrations of compounds to be assayed were added to the cells in 50 μL of assay buffer and incubated for 4 minutes. The fluorescence signal was initiated by adding 100 μL of assay buffer containing 6 mM TlNO3 and 10 mM K2SO4. Fluors were excited using the 488-nm line of an argon laser and emission was filtered using a 540±30 nm bandpass filter. Fluorescent signals were recorded for 3 minutes. Responses over baseline values were plotted versus concentrations of test compounds to obtain an EC50 value. The maximum response for each test compound was determined relative to the response produced at 10 μM by retigabine. The maximum response of retigabine at 10 μM was set at 100%.

pEC50: −log10 of the molar value.

T1 sequence (O43526 whole entry): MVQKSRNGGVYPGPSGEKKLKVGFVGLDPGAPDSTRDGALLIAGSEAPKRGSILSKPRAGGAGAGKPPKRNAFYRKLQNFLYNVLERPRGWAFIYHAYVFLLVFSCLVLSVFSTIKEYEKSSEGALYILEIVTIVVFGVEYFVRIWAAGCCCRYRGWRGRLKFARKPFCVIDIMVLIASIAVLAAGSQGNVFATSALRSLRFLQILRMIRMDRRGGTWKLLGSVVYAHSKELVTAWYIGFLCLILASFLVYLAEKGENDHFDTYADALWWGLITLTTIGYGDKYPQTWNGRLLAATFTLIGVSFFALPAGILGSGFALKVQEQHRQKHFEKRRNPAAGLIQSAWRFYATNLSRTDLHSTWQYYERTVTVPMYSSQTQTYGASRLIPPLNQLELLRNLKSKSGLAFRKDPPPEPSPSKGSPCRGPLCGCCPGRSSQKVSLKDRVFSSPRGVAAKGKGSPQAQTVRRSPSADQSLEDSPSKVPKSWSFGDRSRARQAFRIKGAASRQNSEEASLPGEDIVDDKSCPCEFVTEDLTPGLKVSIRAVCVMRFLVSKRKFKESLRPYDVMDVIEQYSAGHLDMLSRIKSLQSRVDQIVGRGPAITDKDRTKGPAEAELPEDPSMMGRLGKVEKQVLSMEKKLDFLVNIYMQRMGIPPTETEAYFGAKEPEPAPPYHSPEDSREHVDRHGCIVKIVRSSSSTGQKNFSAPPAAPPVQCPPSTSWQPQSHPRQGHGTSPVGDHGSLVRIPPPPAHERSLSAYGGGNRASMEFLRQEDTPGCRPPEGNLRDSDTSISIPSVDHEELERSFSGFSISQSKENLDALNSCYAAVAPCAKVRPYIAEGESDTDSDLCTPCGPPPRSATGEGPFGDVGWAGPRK
T1 sequence (O43525 whole entry): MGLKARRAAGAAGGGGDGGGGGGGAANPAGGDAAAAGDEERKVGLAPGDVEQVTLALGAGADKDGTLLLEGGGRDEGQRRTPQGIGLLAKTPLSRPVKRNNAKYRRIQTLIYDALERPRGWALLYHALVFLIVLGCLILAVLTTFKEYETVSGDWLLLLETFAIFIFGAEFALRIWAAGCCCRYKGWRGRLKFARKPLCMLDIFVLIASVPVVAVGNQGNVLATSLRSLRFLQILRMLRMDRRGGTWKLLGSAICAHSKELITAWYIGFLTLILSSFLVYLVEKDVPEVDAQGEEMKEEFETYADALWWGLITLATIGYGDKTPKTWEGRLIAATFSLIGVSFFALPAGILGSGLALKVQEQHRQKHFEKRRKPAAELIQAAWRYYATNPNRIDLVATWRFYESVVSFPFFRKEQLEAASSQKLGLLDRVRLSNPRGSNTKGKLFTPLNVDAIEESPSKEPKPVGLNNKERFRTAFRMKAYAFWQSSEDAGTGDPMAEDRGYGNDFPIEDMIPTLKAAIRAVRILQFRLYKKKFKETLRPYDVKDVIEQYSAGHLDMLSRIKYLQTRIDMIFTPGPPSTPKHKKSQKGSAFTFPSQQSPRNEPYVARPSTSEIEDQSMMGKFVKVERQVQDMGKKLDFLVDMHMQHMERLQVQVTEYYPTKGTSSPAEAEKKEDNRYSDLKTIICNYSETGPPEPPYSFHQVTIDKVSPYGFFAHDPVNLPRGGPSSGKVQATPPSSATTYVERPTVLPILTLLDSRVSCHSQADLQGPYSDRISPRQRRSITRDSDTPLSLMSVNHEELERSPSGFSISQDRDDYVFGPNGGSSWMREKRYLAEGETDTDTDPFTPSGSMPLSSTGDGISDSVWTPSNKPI

Broadly, the pEC50 is the negative decadic logarithm of the EC50, by convention in mol/L. As for `O=C(Nn1c(-c2ccccc2)nc2ccccc2c1=O)[C@@H]1[C@H]2[C@@H]3CC[C@@H](C3)[C@@H]12` [Example 39, (exo,exo)-N-(4-oxo-2-phenylquinazolin-3(4H)-yl)tricyclo[3.2.1.0^2,4]octane-3-carboxamide], the Emax is -23.5% and the pEC50 is below 4.52.

For `CC(C)Sc1nc2sc(-c3ccccc3)cc2c(=O)n1NC(=O)CC12CC3CC(CC(C3)C1)C2` [Example 40, 2-(1-adamantyl)-N-[2-(isopropylthio)-4-oxo-6-phenylthieno[2,3-d]pyrimidin-3(4H)-yl]acetamide], the Emax is 19.2% and the pEC50 was below 4.52.

Turning to `Cc1nc2sc3c(c2c(=O)n1NC(=O)CC12CC4CC(CC(C4)C1)C2)CCCC3` [Example 44, 2-(1-adamantyl)-N-(2-methyl-4-oxo-5,6,7,8-tetrahydro[1]benzothieno[2,3-d]pyrimidin-3(4 H)-yl)acetamide], the Emax was determined as 81.8% and the negative logarithm of the EC50 (pEC50) is 5.70.

Consider `Cc1nc2sc3c(c2c(=O)n1NC(=O)CC12CC4CC(CC(C4)C1)C2)CCC3` [Example 45, 2-(1-adamantyl)-N-(2-methyl-4-oxo-6,7-dihydro-4H-cyclopenta[4,5]thieno[2,3-d]pyrimidin-3(5H)-yl)acetamide], for which the Emax stood at 19.6% and the pEC50 was below 4.50.

With `Cc1sc2nc(C)n(NC(=O)CC34CC5CC(CC(C5)C3)C4)c(=O)c2c1-c1ccccc1` [Example 46, 2-(1-adamantyl)-N-(2,6-dimethyl-4-oxo-5-phenylthieno[2,3-d]pyrimidin-3(4H)-yl)acetamide], the Emax stood at 130% and the negative logarithm of the EC50 (pEC50) is 6.34.

As to `Cc1cc2c(=O)n(NC(=O)CC34CC5CC(CC(C5)C3)C4)c(C)nc2s1` [Example 47, 2-(1-adamantyl)-N-(2,6-dimethyl-4-oxothieno[2,3-d]pyrimidin-3(4H)-yl)acetamide], the Emax came to 56.7% and the pEC50 is 6.19.

As for `Cc1nc2sc3c(c2c(=O)n1NC(=O)CC12CC4CC(CC(C4)C1)C2)CCCCC3` [Example 48, 2-(1-adamantyl)-N-(2-methyl-4-oxo-6,7,8,9-tetrahydro-4H-cyclohepta[4,5]thieno[2,3-d]pyrimidin-3(5H)-yl)acetamide], the Emax was 89.8% and the pEC50 is 4.96.

On to `Cc1sc2nc(C)n(NC(=O)CC34CC5CC(CC(C5)C3)C4)c(=O)c2c1C` [Example 49, 2-(1-adamantyl)-N-(2,5,6-trimethyl-4-oxothieno[2,3-d]pyrimidin-3(4H)-yl)acetamide], for which the Emax was 65.2% and the pEC50 was 6.11.

On to `O=C(CC12CC3CC(CC(Cl)(C3)C1)C2)Nn1c(C2CC2)nc2cc(C(F)(F)F)ccc2c1=O` [Example 50, 2-[3-chloro-1-adamantyl]-N-[2-cyclopropyl-4-oxo-7-(trifluoromethyl)quinazolin-3(4H)-yl]acetamide], for which the Emax was -0.535% and the pEC50 is below 4.50.

With `O=C(CC12CC3CC(CC(Cl)(C3)C1)C2)Nn1c(C2CC2)nc2ccccc2c1=O` [Example 51, 2-[3-chloro-1-adamantyl]-N-(2-cyclopropyl-4-oxoquinazolin-3(4H)-yl)acetamide], the Emax was 152% and the negative logarithm of the EC50 (pEC50) is 6.80.

Regarding `CCc1nc2sccc2c(=O)n1NC(=O)CC12CC3CC(CC(Cl)(C3)C1)C2` [Example 52, 2-[3-chloro-1-adamantyl]-N-(2-ethyl-4-oxothieno[2,3-d]pyrimidin-3(4H)-yl)acetamide], the Emax is 109% and the negative-log EC50 (pEC50) was 5.10.

Regarding `O=C(CC12CC3CC(CC(Cl)(C3)C1)C2)Nn1c(C2CC2)nc2cc(F)ccc2c1=O` [Example 53], the Emax worked out at 116% and the pEC50 is 6.60.

Regarding `CCc1nc2ccccc2c(=O)n1NC(=O)C12CC3CC(CC(C3)O1)C2` [Example 54, N-(2-ethyl-4-oxoquinazolin-3(4H)-yl)-2-oxatricyclo[3.3.1.1^3,7]decane-1-carboxamide], the Emax was 5.5% and the pEC50 was below 4.50.

As for `CCc1nc2ccccc2c(=O)n1NC(=O)C[C@@H]1C[C@@H]2CC[C@@H](C2)C1` [Example 55, endo 2-[bicyclo[3.2.1]oct-3-yl]-N-(2-ethyl-4-oxoquinazolin-3(4H)-yl)acetamide], the Emax amounted to 150% and the negative logarithm of the EC50 (pEC50) was 6.38.

With `CC(C)c1nc2ccccc2c(=O)n1NC(=O)CC1C2CCCC1CCC2` (centres unmarked) [Example 56, 2-bicyclo[3.3.1]non-9-yl-N-(2-isopropyl-4-oxoquinazolin-3(4H)-yl)acetamide], the Emax was determined as 158% and the pEC50 was 6.98.

Consider `CCc1nc2ccccc2c(=O)n1NC(=O)CC1C2CCCC1CCC2` (centres unmarked) [Example 57, 2-bicyclo[3.3.1]non-9-yl-N-(2-ethyl-4-oxoquinazolin-3(4H)-yl)acetamide], for which the Emax stood at 148% and the negative-log EC50 (pEC50) was 6.46.

On to `CCc1nc2ccccc2c(=O)n1NC(=O)[C@@H]1[C@H]2[C@@H]3CC[C@@H](C3)[C@@H]12` [Example 58, (exo,exo)-N-(2-ethyl-4-oxoquinazolin-3(4H)-yl)tricyclo[3.2.1.0^2,4]octane-3-carboxamide], for which the Emax stood at 11.6% and the pEC50 was below 4.50.

In the case of `CC(C)c1nc2ccccc2c(=O)n1NC(=O)[C@@H]1[C@H]2[C@@H]3CC[C@@H](C3)[C@@H]12` [Example 59, (exo,exo)-N-(2-isopropyl-4-oxoquinazolin-3(4H)-yl)tricyclo[3.2.1.0^2,4]octane-3-carboxamide], the Emax amounted to 16.5% and the negative-log EC50 (pEC50) was below 4.50.

`CC(C)c1nc2ccccc2c(=O)n1NC(=O)C[C@@H]1C[C@@H]2CC(=O)C[C@@H](C2)C1` [Example 60]: the Emax came out at 58% and the pEC50 was below 4.50.
